The text below walks through data of patent US5252570A, “Amidino and guanidino derivatives” (B.I. Italia, priority 1988, dated 1993).

Structures can show the parent of a compound that is named as a salt. Where two headings read alike, the source gives them in different places.

The target of this assay is T1, 5-HT3 receptors (Rattus norvegicus, UniProt P35563).
T1 construct: from tissue; host or cells: whole anesthetized rat (in vivo)
T1 sequence (P35563 24-483): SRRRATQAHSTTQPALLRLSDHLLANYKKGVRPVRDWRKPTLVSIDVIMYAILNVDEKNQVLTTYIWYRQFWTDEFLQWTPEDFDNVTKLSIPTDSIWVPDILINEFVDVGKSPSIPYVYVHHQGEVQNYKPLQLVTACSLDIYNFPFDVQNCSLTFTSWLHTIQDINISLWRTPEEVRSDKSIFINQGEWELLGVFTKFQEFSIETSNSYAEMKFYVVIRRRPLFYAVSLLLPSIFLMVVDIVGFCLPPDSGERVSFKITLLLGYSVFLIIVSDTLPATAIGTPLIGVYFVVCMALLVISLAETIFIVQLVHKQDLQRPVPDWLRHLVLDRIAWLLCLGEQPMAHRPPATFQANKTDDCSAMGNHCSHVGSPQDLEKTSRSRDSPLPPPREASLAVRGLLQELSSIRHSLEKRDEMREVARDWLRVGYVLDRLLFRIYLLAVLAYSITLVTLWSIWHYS
Kind of assay: Bezold-Jarish reflex in anesthetized rats (serotonin-induced bradycardia and hypotension). The following applies: iv, antagonist injected 5 min before serotonin (20 μg/kg i.v.), urethane-anesthetized rats. Format: in vivo. The source says:
As already mentioned hereinbefore the new compounds of formula (I), according to the present invention, have interesting pharmacological properties owing to their ability to antagonize the physiological 5-HT effects at 5-HT3 receptors in warm-blooded animals. Therefore the new compounds are commercially useful in the prevention and in the treatment of disorders wherein 5-HT3 receptors are involved, such as chemotherapy or radiation induced nausea and emesis, migraine, delayed gastric emptying, stress-induced psychological disorders, irritable bowel syndrome, arrhytmia and rhinitis.
Bezold-Jarish Reflex in Anesthetized Rats
Rats (250-275 g) were anesthetized with urethane (1.25 g/kg ip.). The blood pressure and the heart rate were recorded from the left femoral artery by means of a pressure transducer (Statham) connected with a cardiotachometer. The Bezold-Jarish reflex was elicited by rapid intravenous injection of serotonin (20 μg/kg).
Increasing doses of antagonists were injected 5 min. before serotonin to evaluate their effect on the initial bradycardia and associated fall in blood pressure resulting from the reflex vagal stimulation. In other experiments, the right vagus nerve was stimulated with platinum electrodes at 10 V, 10 Hz, 2 msec, (Grass 248 stimulator), to evoke bradycardia. ED50 values were calculated by linear regression analysis of the data expressed as percentage inhibition.

[1] abbreviates: inhibition of fall in blood pressure, read-out: Hypotension ED50.

The term ED50 denotes the dose that gives a 50% effect, or the effect in half of the subjects. For `N=CN1[C@@H]2CC[C@H]1C[C@@H](OC(=O)c1cc(Cl)cc(Cl)c1)C2` [Compound 15, endo-(8-Iminomethyl-8-azabicyclo-[3.2.1]oct-3-yl)-3,5-dichlorobenzoate hydrochloride], the ED50 under setting [1] is 0.5 µg/kg and the ED50 (inhibition of initial bradycardia, read-out: Bradycardia ED50) amounted to 0.2 µg/kg.

In the case of `N=CN1[C@@H]2CC[C@H]1C[C@@H](OC(=O)c1c[nH]c3ccccc13)C2` [Compound 16, endo-8-(Iminomethyl-8-azabicyclo[3.2.1]oct-3-yl)-1H-indol-3-carboxylate hydrochloride], the ED50 under setting [1] is 0.3 µg/kg.
